According to patent publication US20250197372A1 (priority 2020, published 2025):

Key:
Assay type in all cases: biochemical
[1] = target: T1, recombinant alpha-glucosidase II (murine full-length glucosidase II, alpha and beta subunits, Glu 2) (Mus musculus, UniProt Q8BHN3); assay: Alpha-glucosidase II assay (4-methylumbelliferyl-alpha-D-pyranoside substrate, fluorescence); details: Glucosidase 2; read-out: Glu2 IC50
T1 construct: made in house; host or cells: HEK-293T cells transduced with BacMam viruses (75% alpha, 25% beta); protein harvested from culture supernatant
T1 sequence (O08795 15-521): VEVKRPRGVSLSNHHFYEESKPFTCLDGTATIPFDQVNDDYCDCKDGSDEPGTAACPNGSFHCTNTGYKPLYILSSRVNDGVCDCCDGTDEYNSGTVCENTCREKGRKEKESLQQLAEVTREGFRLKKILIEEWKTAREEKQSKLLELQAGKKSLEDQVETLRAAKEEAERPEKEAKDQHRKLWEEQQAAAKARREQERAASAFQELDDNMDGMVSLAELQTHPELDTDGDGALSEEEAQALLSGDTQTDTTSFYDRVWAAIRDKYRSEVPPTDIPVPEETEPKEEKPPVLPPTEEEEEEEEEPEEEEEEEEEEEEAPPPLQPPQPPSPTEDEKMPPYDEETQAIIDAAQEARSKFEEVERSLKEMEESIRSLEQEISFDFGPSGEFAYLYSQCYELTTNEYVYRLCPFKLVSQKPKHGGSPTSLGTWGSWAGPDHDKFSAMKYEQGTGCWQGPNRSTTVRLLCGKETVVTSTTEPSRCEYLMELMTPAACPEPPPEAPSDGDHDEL
T1 sequence (Q8BHN3 33-944): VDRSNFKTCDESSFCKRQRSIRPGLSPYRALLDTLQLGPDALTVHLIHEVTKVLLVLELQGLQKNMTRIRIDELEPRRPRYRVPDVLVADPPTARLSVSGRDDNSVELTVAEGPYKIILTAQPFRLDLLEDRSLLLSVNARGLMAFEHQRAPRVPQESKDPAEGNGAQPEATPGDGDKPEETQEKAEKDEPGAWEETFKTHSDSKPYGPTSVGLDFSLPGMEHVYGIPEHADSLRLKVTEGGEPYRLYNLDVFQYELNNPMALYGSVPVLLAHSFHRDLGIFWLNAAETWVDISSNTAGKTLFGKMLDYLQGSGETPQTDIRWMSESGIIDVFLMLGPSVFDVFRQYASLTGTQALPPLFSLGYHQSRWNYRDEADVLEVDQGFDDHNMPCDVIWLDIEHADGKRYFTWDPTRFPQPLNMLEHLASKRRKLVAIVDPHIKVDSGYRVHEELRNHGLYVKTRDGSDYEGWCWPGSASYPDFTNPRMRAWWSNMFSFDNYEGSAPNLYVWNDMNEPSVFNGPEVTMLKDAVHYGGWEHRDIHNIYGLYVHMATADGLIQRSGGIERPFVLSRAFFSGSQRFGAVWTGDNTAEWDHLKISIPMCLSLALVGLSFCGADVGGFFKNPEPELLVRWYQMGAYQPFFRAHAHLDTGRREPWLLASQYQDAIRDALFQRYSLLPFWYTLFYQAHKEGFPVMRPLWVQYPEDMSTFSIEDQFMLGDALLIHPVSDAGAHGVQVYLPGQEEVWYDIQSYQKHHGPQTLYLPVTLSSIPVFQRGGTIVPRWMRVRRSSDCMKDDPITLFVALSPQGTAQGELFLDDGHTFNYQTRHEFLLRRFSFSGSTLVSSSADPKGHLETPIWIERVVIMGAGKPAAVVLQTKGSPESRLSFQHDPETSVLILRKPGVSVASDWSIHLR

[2] = target: recombinant human GAA (acid alpha-glucosidase) (Homo sapiens, UniProt P10253); assay: Acid alpha-glucosidase (GAA) assay (4-methylumbelliferyl-alpha-D-pyranoside substrate, fluorescence)
Outline: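 Recombinant human enzyme preincubated 60 min at 37 °C with compound dilutions, then 4-methylumbelliferyl-alpha-D-pyranoside substrate added for 20 min at 37 °C. Stopped with glycine/NaOH pH 10; methylumbelliferone fluorescence (ex 365, em 440 nm) versus untreated enzyme; IC50 by 4-PL fit.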

[3] = target: T2, recombinant human GBA (beta-glucocerebrosidase) (Homo sapiens, UniProt P04062); assay: Beta-glucocerebrosidase (GBA, glucosylceramidase) assay (4-methylumbelliferyl-beta-D-pyranoside substrate, fluorescence)
T2 sequence (P04062 40-536): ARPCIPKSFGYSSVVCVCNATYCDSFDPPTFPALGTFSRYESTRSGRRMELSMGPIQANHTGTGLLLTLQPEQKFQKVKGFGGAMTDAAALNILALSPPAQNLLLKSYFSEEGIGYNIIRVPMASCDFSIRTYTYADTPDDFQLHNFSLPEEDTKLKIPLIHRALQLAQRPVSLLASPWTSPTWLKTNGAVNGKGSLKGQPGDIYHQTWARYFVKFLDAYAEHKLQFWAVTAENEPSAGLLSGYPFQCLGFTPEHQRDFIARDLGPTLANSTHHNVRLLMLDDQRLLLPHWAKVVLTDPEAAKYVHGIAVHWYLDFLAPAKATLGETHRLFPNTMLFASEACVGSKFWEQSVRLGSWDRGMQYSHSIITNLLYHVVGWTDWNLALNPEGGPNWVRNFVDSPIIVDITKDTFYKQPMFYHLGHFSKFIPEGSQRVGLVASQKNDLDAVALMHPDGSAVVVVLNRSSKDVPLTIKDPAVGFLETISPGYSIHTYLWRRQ
Outline: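 Recombinant human GBA preincubated with compound dilutions 60 min at 37 °C, then 4-methylumbelliferyl-beta-D-pyranoside added for 60 min at 37 °C. Stopped at pH 10 (glycine/NaOH); fluorescence ex 365/em 440 nm. IC50 from 4-PL fit of inhibition relative to untreated enzyme.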

[4] = target: rat maltase (partially purified alpha-glucosidase from intestinal rat powder); assay: Intestinal alpha-glucosidase assay, maltose substrate (Glucose GO Kit)
Outline: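 Partially purified alpha-glucosidase from rat intestinal powder was preincubated 60 min at 37 °C with serial compound dilutions, then given maltose or sucrose and incubated 30 min at 37 °C.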

SMILES	IC50 [1] [µM]	IC50 [2] [µM]	IC50 [3] [µM]	IC50 [4] [µM]
O=[N+]([O-])c1cc(N2CC3CC2CO3)ccc1NCc1ccc(CN2C[C@@H](O)[C@H](O)[C@@H](O)[C@@H]2CO)cc1 (stereo in doubt) [Compound 1015, (2S,3S,4S,5R)-2-(hydroxymethyl)-1-[(4-{[(2-nitro-4-{2-oxa-5-azabicyclo[2.2.1]heptan-5-yl}phenyl)amino]methyl}phenyl)methyl]piperidine-3,4,5-triol]	0.002	0.129	> 100	0.008
CN(Cc1cccc(CN2C[C@H](O)[C@@H](O)[C@H](O)[C@H]2CO)c1)c1ccc(CN2CCCO2)cc1[N+](=O)[O-] [Compound 1020]	–	1.16	76.3	0.044
Cc1cc(Br)cc(NCc2cccc(CN3C[C@H](O)[C@@H](O)[C@H](O)[C@H]3CO)c2)c1 [Compound 1021, (2R,3R,4R,5S)-1-[(3-{[(3-bromo-5-methylphenyl)amino]methyl}phenyl)methyl]-2-(hydroxymethyl)piperidine-3,4,5-triol]	35	2.09	25.8	0.008
N#Cc1cc(Br)cc(NCc2cccc(CN3C[C@H](O)[C@@H](O)[C@H](O)[C@H]3CO)c2)c1 [Compound 1023, 3-bromo-5-{[(3-{[(2R,3R,4R,5S)-3,4,5-trihydroxy-2-(hydroxymethyl)piperidin-1-yl]methyl}phenyl)methyl]amino}benzonitrile]	42.6	1.44	91.1	0.03
Cc1cc(Br)cc(NCc2ccc(CN3C[C@H](O)[C@@H](O)[C@H](O)[C@H]3CO)cc2)c1 [Compound 1024, (2R,3R,4R,5S)-1-[(4-{[(3-bromo-5-methylphenyl)amino]methyl}phenyl)methyl]-2-(hydroxymethyl)piperidine-3,4,5-triol]	–	0.221	21.1	0.002
CS(=O)(=O)c1cc(Br)cc(NCc2ccc(CN3C[C@H](O)[C@@H](O)[C@H](O)[C@H]3CO)cc2)c1 [Compound 1025, (2R,3R,4R,5S)-1-[(4-{[(3-bromo-5-methanesulfonylphenyl)amino]methyl}phenyl)methyl]-2-(hydroxymethyl)piperidine-3,4,5-triol]	0.229	0.135	38.9	0.004
N#Cc1cc(Br)cc(NCc2ccc(CN3C[C@H](O)[C@@H](O)[C@H](O)[C@H]3CO)cc2)c1 [Compound 1026, 3-bromo-5-{[(4-{[(2R,3R,4R,5S)-3,4,5-trihydroxy-2-(hydroxymethyl)piperidin-1-yl]methyl}phenyl)methyl]amino}benzonitrile]	< 0.001	0.064	37.9	< 0.001
OC[C@@H]1[C@@H](O)[C@H](O)[C@@H](O)CN1Cc1cccc(CNc2ccc(Br)cc2)c1 [Compound 1027, (2R,3R,4R,5S)-1-[(3-{[(4-bromophenyl)amino]methyl}phenyl)methyl]-2-(hydroxymethyl)piperidine-3,4,5-triol]	23.6	2.83	75.7	0.081
OC[C@@H]1[C@@H](O)[C@H](O)[C@@H](O)CN1Cc1ccc(CNc2ccc(Br)cc2)cc1 [Compound 1028, (2R,3R,4R,5S)-1-[(4-{[(4-bromophenyl)amino]methyl}phenyl)methyl]-2-(hydroxymethyl)piperidine-3,4,5-triol]	0.827	0.666	12.9	0.011
O=[N+]([O-])c1cc(Br)ccc1NCc1cccc(CN2C[C@H](O)[C@@H](O)[C@H](O)[C@H]2CO)c1 [Compound 1029, (2R,3R,4R,5S)-1-[(3-{[(4-bromo-2-nitrophenyl)-amino]methyl}phenyl)methyl]-2-(hydroxymethyl)piperidine-3,4,5-triol]	20.4	1.33	52.3	0.01
